Compound | melting point [°C]
N#Cc1cccc(-c2ccco2)n1 | 90.2 to 90.3
NS(=O)(=O)c1ccc(-c2ccc(Cl)n2-c2ccc(Cl)cc2Cl)cc1 | 186 to 187
Clc1ccc2c(N[C@@H]3CCC[C@H](Nc4ccnc5cc(Cl)ccc45)C3)ccnc2c1 | > 250
O=S(=O)(c1ccc(Cl)cc1)C(c1cc(F)ccc1F)c1cc(Cl)ncc1Cl (configuration not stated) | 147 to 148
NS(=O)(=O)c1ccc(C2=C(c3cccc(F)c3F)CCC2)cc1 | 133 to 134
CC1(C)C(C=CC(=O)Cl)C1C(=O)OC(C#N)c1cccc(Oc2ccccc2)c1 (configuration not stated) | 86
COc1ccc(N2CCN(c3ccc(-n4cnnc4SC)cc3)CC2)cc1 | 180
O=C(NCc1ccccc1)c1cc2c(-c3ccccc3)n[nH]c2s1 | 98 to 101
Cc1ccccc1-c1c(NC(=O)Nc2ccc(F)cc2F)c(=O)n(C)c2ccc(Cl)cc12 | 163 to 165
N#Cc1ccc(-c2cc3c(n2-c2ccc(O)c(C(=O)O)c2)CCCC3)cc1 | 242 to 244
O=c1cc(-c2ccc(OCc3ccccc3)c(OCc3ccccc3)c2)oc2cc(OCCBr)ccc12 | 167 to 168
COc1ccc(C2CN(O)C3(c4ccccc4)CCCCC23)cc1OC (configuration not stated) | 166 to 168
CCS(=O)(=O)N(Cc1cccnc1)c1ccc(Oc2ccccc2)cc1 | 79 to 80
Brc1cc(Br)c(OC2C=CCC2)c(I)c1 (configuration not stated) | 57 to 58
CC(C)NCC(O)Cc1ccc([N+](=O)[O-])c(C2OCCO2)c1 (configuration not stated) | 97 to 99
Cc1nc(C(C)O)c2n1-c1ccc(Cl)cc1C(c1ccccc1Cl)=NC2 (configuration not stated) | 197 to 199
O=C1COc2ccccc2O1 | 45 to 53
COc1cc2c(cc1C(F)(F)F)N(C(=O)Nc1ccc3c(ccn3Cc3cccnc3)c1)CC2 | 243 to 246
COc1cc2c(CCN)c[nH]c2cc1F | 114 to 117
O=C1Nc2ccc(F)cc2C(CCc2ccccc2)(C(F)(F)F)N1 (racemic) | 98
COc1c(C(F)(F)F)cc([N+](=O)[O-])c(NN(C)C)c1[N+](=O)[O-] | 109 to 110
CCOCC1CN2CCC1CC2 (configuration not stated) | 73 to 77
CSc1ccc(C(=O)NN=C2C(=O)Nc3ccc(I)cc32)cc1 | 298
CCCCCCc1ccc(S(=O)(=O)Nc2nncs2)cc1 | 125 to 126
N#CC=CC(=O)C=NN1CC(=O)NC1=O | 171 to 173

Compound | melting point [°C]
Oc1ccc2c(c1)C13CCN(CC4CC4)C(C2)C1OCOC3 (configuration not stated) | 193 to 196
O=C1N(Cc2ccc(C(F)(F)F)o2)c2ccccc2C1(O)c1nc2c(cc1O)OCO2 (configuration not stated) | > 250
C=C(C)c1ccc2c(c1)Cc1ccccc1O2 | 62 to 64
COc1cc(C)c(C(=O)c2c(OC)ccc(Br)c2Cl)c(OC)c1OC | 87 to 88
CSc1ccc2c(c1)C(Cl)c1ccccc1C=C2 (configuration not stated) | 135 to 138
Fc1ccccc1C1=NCc2n[nH]cc2-c2ccc(Cl)cc21 | 208 to 210
CCCc1c(C(=O)C(C)C)c2ccc(C(=O)O)cc2n1Cc1ccccc1C | 186 to 188
Cc1ccc(-n2nc(C#N)cc2-c2ccc(S(C)(=O)=O)cc2)cc1F | 167 to 168
O=C(NC(CS)Cc1ccccc1)N1CCOCC1 (single isomer, unassigned; (+)) | 84
COc1ncncc1C1c2ccccc2OCOc2cc(F)ccc21 (configuration not stated) | 144 to 148
FC(F)(F)C(F)(F)C1(CNC2=NCCO2)CCCCC1 | 115 to 118
Cc1cccc(C)c1N1C(=O)CS/C1=N\C(=O)Nc1ccc(-c2ncn(-c3ccc(OC(F)(F)F)cc3)n2)cc1 | 190 to 196
Cc1nc2scc(-c3ccc(F)cc3)n2c(=O)c1CCN1CCC(c2noc3cc(F)ccc23)CC1 | 119 to 122
CS(=O)(=O)c1ccc(-n2nc(-c3ccc(F)cc3)cc2C(F)(F)F)cc1 | 158 to 160
Cc1cc(OC23CC4CC(CC(C4)C2)C3)ccc1N | 143 to 145
COc1ccc2c3c1OC1C(=O)C(C)CC4(OC)C(C2)N(C)CCC314 (configuration not stated) | 215 to 221
Oc1cncc2ccsc12 | 180
O=C(O)C(=O)c1ccc(OC/C=C/c2ccc3ccccc3c2)cc1 | 142 to 143
Oc1ccc(-n2nc3c(c2Cl)CCCC3)c(F)c1 | 214 to 216
CN1C(=O)CCC2(C)C3CCC4(C)C(OCC(=O)O)CCC4C3CCC12 (configuration not stated) | 180 to 184
CN1CC(C(C#N)(c2ccccc2)c2ccccc2)C1 | 113 to 115
O=[N+]([O-])c1cc2c(c3c([N+](=O)[O-])cccc13)C(CCl)CN2 (configuration not stated) | 130 to 131
COC1C(O)C(COC(c2ccccc2)(c2ccccc2)c2ccccc2)OC(Oc2ccc([N+](=O)[O-])cc2)C1O (configuration not stated) | 104
CC1CC(=O)NN=C1c1ccc(NC2=NCCN2)c(Br)c1 (configuration not stated) | 265 to 267
O=C(Nc1c(Cl)cccc1Cl)C1CC1 | 166 to 169

The remaining lines, values ahead:

melting point [°C] | Compound
231 to 236 | Cc1nc2c(c(-c3ccccc3)nn2C)c(-c2ccc(F)cc2)c1CO
140 to 141 | COc1nc(C)nc(NC(=O)NS(=O)(=O)c2ccccc2OC(F)F)n1
124 to 125 | CC(=O)N(CCCC(=O)O)c1ccccc1-c1ccccc1
200 to 205 | Nc1ncnc2c1ncn2OC[C@@H](CO)OCP(=O)(O)O
52 to 52.5 | CC(=O)Oc1ccc(CCc2cc(OC(C)=O)cc(OC(C)=O)c2)cc1
242 | CCOC(=O)N1CCC(O)(c2cccs2)CC1
152 to 153 | CC(C)(C)OC(=O)N1CCC(n2nc(-c3c(-c4ccccc4)nn4ccccc34)ccc2=O)CC1
217 to 219 | COC(=O)c1c[nH]c2ccc(N)cc12
175 to 178 | CCn1c(Oc2cccc(N3CCNCC3)c2)nnc1[C@@H](C)NS(=O)(=O)c1ccc(Cl)c(Cl)c1
154 | CCOc1cnc(C(C)C)nc1O
99 to 101 | COCc1cnc2c(NC(=O)c3c(Cl)cccc3Cl)cc(C)cc2c1-n1ccnc1
179 to 181 | O=C(NCc1ccc(Cl)cc1)c1cnc2ccc(C#CCO)cn2c1=O
237 to 238 | O=C(O)Cn1c(=S)c2ccccc2n(Cc2ccc(Cl)c(Cl)c2)c1=O
230 | CCCc1cc(C)c(OCCO)c(C(Nc2ccc(C(=N)N)cc2)C(=O)O)c1 (racemic)
143 | CCCCn1c(=O)c(C#N)c(N2CCN(C(=O)c3cccs3)CC2)c2cccnc21
117 to 120 | COC(=O)c1[nH]c(C)c(C)c1OCCCCl
140 to 142 | Cc1ccccc1-n1nnc2cnc3ccccc3c21
77 to 78 | COC(=O)CCCCCC(O)c1ccc(-n2ccnc2)cc1 (configuration not stated)
119 to 121 | CCOC(=O)C(=O)c1ccc2c(c1)CCCO2
130 to 131 | COC(=O)c1ccc(-c2cc[nH]n2)cc1Cl
88 to 90 | CCNC(=O)n1nc(Oc2c(Cl)cc(C(F)(F)F)cc2Cl)cc1C(=O)OC
122 to 124 | CCc1nn(CCO)c(CC)c1Oc1cc(C#N)cc(-n2cncn2)c1
158 | O=[N+]([O-])c1ccc(Cl)c(NC(=S)NCCO)c1
227 to 229 | O=C(O)c1ccc(COCc2csc3nc(C(=O)NCCc4ccccc4)[nH]c(=O)c23)cc1
184 to 185 | CC(C)(C)C(=O)c1c[nH]c2ncc(-c3cccc(OCc4ccccc4)c3)nc12
221 to 222 | O=C(NCc1ccccn1)c1nc(-c2ccccc2)c(-c2ccc(=O)[nH]n2)s1

melting point [°C] | Compound
128 to 130 | CC(C)SC1NC(=O)C1NC(=O)COc1ccccc1 (configuration not stated)
132 to 133 | CCOC(=O)C(C)(C)NC(=O)c1nnc2ccc(Cl)nn12
201 to 204 | CCN(CCO)CCCNc1ncc2cc(-c3c(Cl)cccc3Cl)c(N)nc2n1
243 to 244 | Nc1nnc2c3c(c(N4CCCC4)nn12)CCCC3
154 to 159 | Cc1sccc1C1(c2cccc(-c3cncnc3)c2)N=C(N)N(C)C1=O (configuration not stated)
216 to 217 | NC(=O)N1C(=O)C(C(=O)c2sccc2Br)c2cc(Cl)ccc21 (configuration not stated)
86 to 88 | COC(=O)CCc1c(Cc2ccccc2C(F)(F)F)sc2c1c(=O)n(C)c(=O)n2CC(C)C
121 to 123 | CCC(=O)C(=O)NC(=O)[C@@H](N)Cc1ccccc1
172 to 174 | CCOC(=O)c1cn(-c2nccs2)c2c(F)c(F)c(F)cc2c1=O
274 | COC(=O)CCCc1cc2nc(Cl)ccc2n1S(=O)(=O)c1ccc2nc(NC(C)=O)sc2c1
275 to 276 | COc1cccc(OC)c1-c1cc(C(=O)O)nn1-c1ccc(C(N)=O)cc1C
74 to 75 | CCCOC(=O)c1ccc(OC(=O)CCCC(=O)Oc2ccc(C(=O)OCCC)cc2)cc1
158 to 160 | NS(=O)(=O)c1cc2c(s1)S(=O)(=O)C(CCO)CN2 (configuration not stated)
90 to 102 | CC1(C)COC1(Cn1cncn1)c1ccc(Cl)cc1 (configuration not stated)
68 to 69 | CCCCCCOc1ccc(C(=O)NCC2CCCC2(C)C)cc1 (single isomer, unassigned; (+))
275 | COc1cc2c(cc1OC)C1=NCCN1C(/C=C(\O)c1cccnc1)=N2
> 250 | CN(C)c1nc2cc(NC(=O)c3c(C(=O)O)cnn3C)ccn2n1
266 to 268 | CCCn1c(=O)c2c(nc(C=Cc3cc(OC)c(OC)cc3S(=O)(=O)N3CCCCC3)n2C)n(CCC)c1=O
121 to 122 | CCCCc1nc(C(=O)c2ccccc2)c(C#N)[nH]1
90 to 95 | Cc1cc(F)ccc1-c1nc(N[C@@H](C)CO)nc2c1ccc(=O)n2-c1c(F)cccc1F
175 to 178 | COc1ccccc1-n1nc(S(=O)(=O)c2ccc(Cl)cc2)c(C)c(C#N)c1=O
207 to 209 | COc1ccc(Cc2ccc3nc(N)nc(N)c3c2)cc1
121 to 122 | COc1ccc(OC)c2c1CCC(O)(CCO)C2 (configuration not stated)
135 to 136 | Cc1oc(-c2ccco2)nc1COc1ccc(Cn2cc(CC(=O)O)c(-c3ccccc3)n2)cn1
72 to 73 | CCOC(=O)CCCc1oc(-n2ccnc2C)nc1-c1ccc(Cl)cc1
130 | NCCN1CCC(Nc2nc3ccccc3n2Cc2ccccn2)C1 (configuration not stated)
